Assays:
FKBP12 = FKBP12 (Homo sapiens, UniProt P62942); conditions: cited from earlier work
Mullerian duct = test: Urogenital ridge organ culture assay (MIS-mediated Mullerian duct regression); set-up: species or system rat
Protocol: The organ culture assay was carried out as described previously (Donahoe, P. K. et al., J. Surg. Res. 23:141-148 (1977)). Briefly, urogenital ridges containing Wolffian and Mullerian ducts from 14.5 day female rat fetuses were maintained in CMRL media with 10% fetal calf serum, 100 units/ml penicillin, and 100 μg/ml streptomycin. To test the effect of the non-functional derivatives of FK506 (L685,818 or 15-O-desmethyl FK520) on Mullerian duct regression, the specimens were treated with the indicated doses of MIS in the presence or absence of the non-functional derivatives of FK506 and incubated at 37° C. in 5% CO2 and 95% air. After 72 hours, the specimens were fixed in formalin, dehydrated in an alcohol series, cleared in xylene, embedded in paraffin, cut in serial cross sections, stained with hematoxylin and eosin and graded for regression of the Mullerian duct as described (Donahoe, P. K. et al., J. Surg. Res. 23:141-148 (1977)).
Since FKBP12 binds to all known type I receptors, its inhibitory activity should therefore also be detected in the signaling events mediated by other TGF-β family members. Mullerian Inhibiting Substance (MIS) is a unique member of the TGF-β family known to be responsible for regression of the Mullerian duct in fetal males through an active apoptotic process (Jost, A., Arch. Anat. Micro. Morph. Exp. 36:271-315 (1947); Price, J. M. et al., Am. J. Anat. 149:353-376 (1977); Trelstad, R. L. et al., Devl. Bio. 92:27-40 (1982)). The activity of MIS in the regression of the Mullerian ducts can be measured directly in an organ culture assay (Donahoe, P. K. et al., J. Surg. Res. 23:141-148 (1977)). In this assay, urogenital ridges containing both the Wolffian duct and the Mullerian duct are isolated from fourteen and a half day female fetuses. […] When 1 μg MIS was added into the organ culture, grade 1.5 regression was observed, which histologically corresponds to a condensation of the mesenchymal cells surrounding a smaller and irregularly shaped Mullerian duct (FIG. 5, A, top panel). […] We further tested the effect of 1 μM 15-O-desmethyl-FK520 on the regression activities of different doses of MIS (FIG. 5, B).

[1] = in vivo; cited from earlier work
Mv1Lu cells [2] = test: Growth inhibition assay; type: cell-based, mink; conditions: for growth inhibition, macrolide alone: each alone, added to Mv1Lu cells
Protocol: Growth Inhibition Assay Mv1Lu cells were seeded in 12-well plate at 3×10^4 cells/well and incubated overnight. Cells were treated with 15-O-demethyl FK520 for 2 hours and with TGF-β for 36 to 40 hours in the presence of the drug. Cells were trypsinized, and cell numbers were determined in a Coulter counter.
To distinguish between these possibilities, both 15-O-desmethyl-FK520 and L685,818 were used to test the role of FKBP12 in the signaling events mediated by TGF-β, and yielded very similar results; here we report the results from using 15-O-desmethyl-FK520. In the absence of 15-O-desmethyl-FK520, TGF-β elicits two cellular responses when added into the mink lung epithelial cell line Mv1Lu: the growth inhibition response, which can be detected by a decrease in cell number, and the gene activation response, which can be measured by an increase in the luciferase activities resulting from the activation of a transfected luciferase reporter gene regulated by a Plasminogen Activator Inhibitor (PAI) promotor (Wrana, J. L. et al., Cell 71:1003-1014 (1992)). […] Therefore, FKBP12 binding to the TGF-β type I receptor is not necessary, but is inhibitory to the type I receptor mediated signaling, and release of FKBP12 is not sufficient for complete activation of the downstream signaling events in the absence of TGF-β.

[3] = test system: FKBP12 (T7 tagged) binding to TGF-β type I receptor (R4); test: R4/FKBP12 co-immunoprecipitation competition in transfected COS cells; type: cell-based; conditions: for block of R4/FKBP12 co-immunoprecipitation: 100 nM derivative, COS cells transfected with R4 and T7 tagged FKBP12
Protocol: For testing FKBP12 binding to ligand-free TGF-β type I receptor (either wild type or mutants) by co-immunoprecipitations, COS1 cells grown in P-100 dishes were transfected with 4 μg of T7 tagged FKBP12 in pCMV8 and 6 μg of R4 (or mutant R4) in pCMV6 using the DEAE-dextran method. In the case of using metabolic labeling to detect co-precipitation of FKBP12 and R4, 40-44 hours after transfection COS1 cells were incubated for 4 hours with 50 μCi/ml [^35 S]-methionine in methionine-free media and lysed in lysis buffer (20 mM Tris-HCl [pH 7.4], 150 mM NaCl, 0.5% Triton X-100, 1 mM EDTA) in the presence of a mixture of protease inhibitors. Anti-T7 monoclonal antibody (5 μl) was added into 200 μl of cell lysates, incubated at 4° C. for 2 hours, absorbed with protein A sepharose beads, and washed three times with wash buffer (20 mM Tris-HCl [pH 7.4], 150 mM NaCl, 0.1% Triton X-100, 1 mM EDTA). Proteins were eluted from the sepharose beads using 2× SDS-PAGE denaturing sample buffer, separated on 15% SDS-PAGE. The gel was treated with Autofluor (National Diagnostic), dried and subjected to autoradiography for 48 hours. In the case of using Western blot to detect co-precipitated T7 tagged FKBP12, cell lysates were immunoprecipitated with 10 μl of VPN antiserum, which recognizes a juxtamembrane region of the TGF-β type I receptor (Franzen, P. et al., Cell 75:681-692 (1993)). The immunoprecipitates were separated on 15% SDS-PAGE, electrotransferred onto nitrocellulose membrane, blotted using anti-T7 monoclonal antibody, and detected by ECL (Amersham).
For testing the effect of non-functional FK506 derivatives (L685,818 from Merck Laboratories and 15-O-desmethyl-FK520 from Sandoz) on FKBP12 binding to R4, 2 hours after transfection COS1 cells were treated with the derivatives for […] and then labeled for 4 hours with 50 μCi/ml [^35 S]-methionine in methionine-free media 40-44 hours after transfection. Cells were then lysed and immunoprecipitation was carried out as described above. […]

Mv1Lu cells [4] = test: Transcriptional response assay (p3TP-lux luciferase reporter); type: cell-based, mink
From the text: Two TGF-β responsive mink lung epithelial cell lines Mv1Lu and L17, the latter being a highly transfectable clone of R1B lacking the functional type I receptor of TGF-β, were used in a transcriptional response employing a DEAE-dextran method (Bassing, C. et al., Science 263:87-89 (1994); Wrana, J. L. et al., Nature 370:341-47 (1994)). Briefly, cells grown to 50% confluency in 6-well plates were transiently transfected with the transcriptional response reporter construct p3TP-lux alone or together with different constructs of the type I receptor. Sixteen to twenty hours after transfection, cells were treated with TGF-β in 0.2% serum medium for 24 to 28 hours. For testing the effect of FK506 derivative 15-O-desmethyl FK520, cells were treated with the drug beginning two hours prior to the addition of TGF-β. Cell lysates were made and luciferase activity was measured in a luminometer. Each assay was carried out in duplicate or triplicate.
To distinguish between these possibilities, both 15-O-desmethyl-FK520 and L685,818 were used to test the role of FKBP12 in the signaling events mediated by TGF-β, and yielded very similar results; here we report the results from using 15-O-desmethyl-FK520. […]

[5] = molecular target: T1, FKBP12 binding to R4C (cytoplasmic domain of TGF-β type I receptor) (Rattus norvegicus, UniProt Q62658); conditions: excess macrolide, yeast cells; cited from earlier work
T1 construct: host or cells: yeast (two-hybrid)

[6] = test system: FKBP12 mutant D37G (mFKBP12); conditions: point mutation within the macrolide binding site; cited from earlier work
[7] = molecular target: FKBP12 mutant (G89P, 190K) (Homo sapiens, UniProt P62942, G90P/I91K); conditions: mutations within the 80s loop; cited from earlier work
[8] = macrolide up to 1 μM together with TGF-β 15 pM

FKBP12, sequence (P62942 whole entry): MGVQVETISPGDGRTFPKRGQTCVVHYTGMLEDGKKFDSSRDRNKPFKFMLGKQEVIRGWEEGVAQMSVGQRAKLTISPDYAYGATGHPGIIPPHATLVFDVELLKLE
T1 sequence (Q62658 whole entry, the tested form may be a part): as the sequence (P62942 whole entry) above, with P10S, M50T, T76I counted along it
FKBP12 mutant (G89P, 190K), sequence (P62942 2-108 G90P/I91K limits assumed): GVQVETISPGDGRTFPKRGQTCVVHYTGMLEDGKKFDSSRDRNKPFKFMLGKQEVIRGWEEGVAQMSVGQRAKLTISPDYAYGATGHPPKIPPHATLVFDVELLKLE

Row | Compound | affinity for FKBP12 (FKBP12) | Mullerian duct regression (Mullerian duct; 1 μM macrolide alone, no MIS) | Mullerian duct regression grade (0 no regression to 5 complete regression) (Mullerian duct; 1 μM macrolide together with 1 μg MIS) [grade] | regression activity of 0.1 μg MIS in presence of macrolide (Mullerian duct; 1 μM macrolide with 0.1 μg MIS, compared with 1 μg MIS alone) | toxicity in animal models [1] | growth inhibition response, macrolide alone (Mv1Lu cells [2]; 1 μM alone, no TGF-β) | TGF-β growth inhibition response (decrease in cell number) (Mv1Lu cells [2]; [8]) | block of R4/FKBP12 co-immunoprecipitation [3] | gene activation response, macrolide alone (Mv1Lu cells [4]; 1 μM alone, no TGF-β) | TGF-β gene activation response (luciferase activity) (Mv1Lu cells [4]; [8]) | competition for binding of R4C to FKBP12 [5] | binding to FKBP12 D37G [6] | growth inhibition, macrolide alone (Mv1Lu cells [2]) | binding to FKBP12 (G89P, 190K) [7] | Mullerian duct regression grade (Mullerian duct; 500 nM macrolide alone) [Grade] | Mullerian duct regression (Mullerian duct; 500 nM macrolide together with 2 μg MIS) | block of R4 interaction with FKBP12 ([3]; 50 nM, COS cells, FIG. 4A lane 3)
1 | CC[C@@H]1/C=C(\C)C[C@H](C)C[C@H](O)[C@H]2O[C@@](O)(C(=O)C(=O)N3CCCC[C@H]3C(=O)O[C@H](/C(C)=C/[C@@H]3CC[C@@H](O)[C@H](OC)C3)[C@H](C)[C@@H](O)CC1=O)[C@H](C)C[C@@H]2OC [15-O-desmethyl-FK520] | binds with high affinity | no regression activity was detected | 5 | more biological activity than 1 μg MIS alone | do not induce toxicity | Neither of the responses were detected | greatly enhanced | able to block R4/FKBP12 co-immunoprecipitation | Neither of the responses were detected | greatly enhanced | – | – | – | – | – | – | –
2 | C=CC[C@@H]1/C=C(\C)C[C@H](C)C[C@H](OC)[C@H]2O[C@@](O)(C(=O)C(=O)N3CCCC[C@H]3C(=O)O[C@H](/C(C)=C/[C@@H]3CC[C@@H](O)[C@H](OC)C3)[C@H](C)[C@@H](O)CC1=O)[C@H](C)C[C@@H]2OC [FK506] | bind strongly | – | – | – | – | – | – | – | – | – | could partially compete | abolishes FKBP12 binding | exhibited growth inhibition activities | without affecting | – | – | –
3 | CC[C@@H]1/C=C(\C)C(O)[C@H](C)C[C@H](OC)[C@H]2O[C@@](O)(C(=O)C(=O)N3CCCC[C@H]3C(=O)O[C@H](/C(C)=C/[C@@H]3CC[C@@H](O)[C@H](OC)C3)[C@H](C)[C@@H](O)CC1=O)[C@H](C)C[C@@H]2OC (stereo partly drawn) [L685,818] | binds with high affinity | – | – | – | do not induce toxicity | – | – | able to block R4/FKBP12 co-immunoprecipitation | – | – | – | – | – | – | 1 | complete regression | block R4 interaction with FKBP12
4 | CO[C@H]1C[C@@H]2CC[C@@H](C)[C@@](O)(O2)C(=O)C(=O)N2CCCC[C@H]2C(=O)O[C@H]([C@H](C)C[C@@H]2CC[C@@H](O)[C@H](OC)C2)CC(=O)[C@H](C)/C=C(\C)[C@@H](O)[C@@H](OC)C(=O)[C@H](C)C[C@H](C)/C=C/C=C/C=C/1C [rapamycin] | bind strongly | – | – | – | – | – | – | – | – | – | – | abolishes FKBP12 binding | exhibited growth inhibition activities | – | – | – | –

Source: patent US5912224A, “Methods and compositions for enhancing cellular response to TGF-β ligands” (priority 1997, dated 1999)
